# Earlier results as cited in patent US12636242B2, “Increased solubilization of diethylamino hydroxybenzoyl hexyl benzoate” (DSM IP ASSETS B.V., priority 2020, dated 2026).
# Read-outs that look alike come from different tables or passages of the source.
# [1] = listed as Diethylamino hydroxybenzoyl hexyl benzoate
structure (smiles),measurement,setting,value
"CCCCCCOC(=O)c1ccccc1C(=O)c1ccc(N(CC)CC)cc1O [UV-filter of the formula (I), diethylamino hydroxybenzoyl hexyl benzoate]","Solubility in esters and alcohols (ethyl hexyl-benzoate, ethanol)",,very soluble
same,"Solubility in esters and alcohols (ethyl hexyl-benzoate, ethanol)",[1],moderate solubility
same,Solubility in water and alkanes,,insoluble
same,Solubility in water and alkanes,[1],very low
